Data from BindingDB's records for doi:10.1124/mol.64.4.841 (Pohang University of Science and Technology, 2003).
Square brackets hold non-standard residues; d marks the D form. Peptide text beside a SMILES is read from it.

These compounds were tested against T1, fMet-Leu-Phe receptor (Homo sapiens, UniProt P21462).
T1 sequence (P21462 whole entry): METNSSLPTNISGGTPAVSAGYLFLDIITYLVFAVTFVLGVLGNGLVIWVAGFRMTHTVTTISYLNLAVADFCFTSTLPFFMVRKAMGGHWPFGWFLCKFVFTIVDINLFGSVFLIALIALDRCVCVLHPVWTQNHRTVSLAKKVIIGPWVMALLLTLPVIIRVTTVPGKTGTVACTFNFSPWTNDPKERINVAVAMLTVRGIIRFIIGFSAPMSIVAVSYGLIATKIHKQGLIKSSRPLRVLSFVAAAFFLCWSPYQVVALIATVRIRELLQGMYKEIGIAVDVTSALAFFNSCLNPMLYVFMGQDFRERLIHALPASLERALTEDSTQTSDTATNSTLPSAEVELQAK

Going from CSCC[C@H](NC(=O)[C@H](Cc1ccc(O)cc1)NC(=O)[C@H](CC(=O)O)NC(=O)[C@@H](N)Cc1c[nH]c2ccccc12)C(=O)N[C@H](C(=O)N[C@H](CCSC)C(N)=O)C(C)C [WDYMVm-NH2] (H-WDYMV[dM]-NH2) to CSCC[C@H](NC(=O)[C@H](Cc1ccc(O)cc1)NC(=O)[C@H](CCC(=O)O)NC(=O)[C@@H](N)Cc1c[nH]c2ccccc12)C(=O)N[C@H](C(=O)N[C@H](CCSC)C(N)=O)C(C)C [WEYMVm-NH2] (H-WEYMV[dM]-NH2), the Ki rises from 99 nM to 323 nM (3.3-fold). The first binds more tightly here.

Compared with CSCC[C@H](NC(=O)[C@H](Cc1ccc(O)cc1)NC(=O)[C@H](Cc1c[nH]cn1)NC(=O)[C@@H](N)Cc1c[nH]c2ccccc12)C(=O)N[C@H](C(=O)N[C@H](CCSC)C(N)=O)C(C)C [WHYMVm-NH2] (H-WHYMV[dM]-NH2), CSCC[C@H](NC(=O)[C@H](Cc1ccc(O)cc1)NC(=O)[C@H](CCCNC(=N)N)NC(=O)[C@@H](N)Cc1c[nH]c2ccccc12)C(=O)N[C@H](C(=O)N[C@H](CCSC)C(N)=O)C(C)C [WRYMVm-NH2] (H-WRYMV[dM]-NH2) is 1.7-fold higher in Ki: 32 nM for the first, 55 nM for the second.

CSCC[C@H](NC(=O)[C@H](CC(=O)O)NC(=O)[C@H](CCCCN)NC(=O)[C@@H](N)Cc1c[nH]c2ccccc12)C(=O)N[C@H](C(=O)N[C@H](CCSC)C(N)=O)C(C)C [WKDMVm-NH2] (H-WKDMV[dM]-NH2) and CSCC[C@H](NC(=O)[C@H](CCC(=O)O)NC(=O)[C@H](CCCCN)NC(=O)[C@@H](N)Cc1c[nH]c2ccccc12)C(=O)N[C@H](C(=O)N[C@H](CCSC)C(N)=O)C(C)C [WKEMVm-NH2] (H-WKEMV[dM]-NH2) are the same in Ki: 1300 nM for the first, 1300 nM for the second.

CSCC[C@H](NC(=O)[C@H](Cc1ccccc1)NC(=O)[C@H](CCCCN)NC(=O)[C@@H](N)Cc1c[nH]c2ccccc12)C(=O)N[C@H](C(=O)N[C@H](CCSC)C(N)=O)C(C)C [WKFMVm-NH2] (H-WKFMV[dM]-NH2) and CSCC[C@H](NC(=O)[C@H](Cc1c[nH]c2ccccc12)NC(=O)[C@H](CCCCN)NC(=O)[C@@H](N)Cc1c[nH]c2ccccc12)C(=O)N[C@H](C(=O)N[C@H](CCSC)C(N)=O)C(C)C [WKWMVm-NH2] (H-WKWMV[dM]-NH2) are within 1.5-fold of each other in Ki: 18 nM for the first, 19 nM for the second.

Going from CSCC[C@H](NC(=O)[C@H](Cc1c[nH]cn1)NC(=O)[C@H](CCCCN)NC(=O)[C@@H](N)Cc1c[nH]c2ccccc12)C(=O)N[C@H](C(=O)N[C@H](CCSC)C(N)=O)C(C)C [WKHMVm-NH2] (H-WKHMV[dM]-NH2) to CSCC[C@H](NC(=O)[C@H](Cc1ccc(O)cc1)NC(=O)[C@H](CCCCN)NC(=O)[C@@H](N)Cc1c[nH]c2ccccc12)C(=O)N[C@@H](Cc1ccccc1)C(=O)N[C@H](CCSC)C(N)=O [WKYM(F/W)m-NH2], the Ki falls from 282 nM to 57 nM (4.9-fold). The second binds more tightly here.

CSCC[C@H](NC(=O)[C@H](Cc1ccc(O)cc1)NC(=O)[C@H](CCCCN)NC(=O)[C@@H](N)Cc1c[nH]c2ccccc12)C(=O)N[C@@H](Cc1ccc(O)cc1)C(=O)N[C@H](CCSC)C(N)=O [WKYMYm-NH2] (H-WKYMY[dM]-NH2) and CSCC[C@H](NC(=O)[C@@H](N)Cc1ccc(O)cc1)C(=O)N[C@H](C(=O)N[C@H](CCSC)C(N)=O)C(C)C [YMVm-NH2] (H-YMV[dM]-NH2) are within 1.5-fold of each other in Ki: 671 nM for the first, 567 nM for the second.
